The values below come from ChEMBL document CHEMBL4346729, “The discovery of novel 3-aryl-indazole derivatives as peripherally restricted pan-Trk inhibitors for the treatment of pain” (Bioorg Med Chem Lett, 2019).

Data set [1] has as its target Serine/threonine-protein kinase pim-2 (Homo sapiens) (UniProt Q9P1W9). In words: Inhibition of recombinant human full length N-terminal GST/His6-tagged PIM2 (M1 to P311) expressed in baculovirus infected Sf9 insect cells at 20 nM using phosphatidylserine as substrate incubated for 60 mins in presence of [33P]-ATP by scintillation counting method.
The nature of data set [2]: Unbound drug level in brain of CFA induced Sprague-Dawley rat at 0.8 mg/kg, po after 1 hr. Particulars: in vivo, BLD = below limit of detection. Type of data set: ADME, organism-based.
The species entered for another data set is Homo sapiens. Kind of data set: Inhibition of PKA (unknown origin) at 20 nM using phosphatidylserine as substrate incubated for 60 mins in presence of [33P]-ATP by scintillation counting method.
The target in data set [3] is MAP kinase-activated protein kinase 5 (Homo sapiens) (UniProt Q8IW41). In words: Inhibition of recombinant human full length MAPKAPK5 (M1 to Q471) expressed in Escherichia coli at 20 nM using phosphatidylserine as substrate incubated for 60 mins in presence of [33P]-ATP by scintillation counting method.
Chain of MAP kinase-activated protein kinase 5 (Homo sapiens) (Q8IW41 whole entry): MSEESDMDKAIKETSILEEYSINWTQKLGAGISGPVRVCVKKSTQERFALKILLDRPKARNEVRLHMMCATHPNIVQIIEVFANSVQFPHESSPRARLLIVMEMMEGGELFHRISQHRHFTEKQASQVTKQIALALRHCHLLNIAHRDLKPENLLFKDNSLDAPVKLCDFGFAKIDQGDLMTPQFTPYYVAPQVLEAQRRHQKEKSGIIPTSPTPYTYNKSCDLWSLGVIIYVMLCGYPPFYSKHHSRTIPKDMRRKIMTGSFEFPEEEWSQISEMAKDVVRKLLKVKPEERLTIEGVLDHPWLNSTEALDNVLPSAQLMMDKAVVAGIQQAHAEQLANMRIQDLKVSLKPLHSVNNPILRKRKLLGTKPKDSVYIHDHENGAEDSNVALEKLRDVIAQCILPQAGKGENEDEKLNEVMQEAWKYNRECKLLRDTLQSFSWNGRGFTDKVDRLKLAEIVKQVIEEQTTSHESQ
Data set [4] has as its target Ribosomal protein S6 kinase alpha-5 (Homo sapiens) (UniProt O75582). Kind of data set: Inhibition of RPS6KA5 (unknown origin) at 20 nM using phosphatidylserine as substrate incubated for 60 mins in presence of [33P]-ATP by scintillation counting method.
Data set [5] deals with Tyrosine-protein kinase Lyn (Homo sapiens) (UniProt P07948). Kind of data set: Inhibition of recombinant human full length N-terminal GST/His6-tagged LYN (M1 to P512) expressed in Sf9 insect cells at 20 nM using phosphatidylserine as substrate incubated for 60 mins in presence of [33P]-ATP by scintillation counting method.
Chain of Tyrosine-protein kinase Lyn (Homo sapiens) (P07948 2-512 limits assumed): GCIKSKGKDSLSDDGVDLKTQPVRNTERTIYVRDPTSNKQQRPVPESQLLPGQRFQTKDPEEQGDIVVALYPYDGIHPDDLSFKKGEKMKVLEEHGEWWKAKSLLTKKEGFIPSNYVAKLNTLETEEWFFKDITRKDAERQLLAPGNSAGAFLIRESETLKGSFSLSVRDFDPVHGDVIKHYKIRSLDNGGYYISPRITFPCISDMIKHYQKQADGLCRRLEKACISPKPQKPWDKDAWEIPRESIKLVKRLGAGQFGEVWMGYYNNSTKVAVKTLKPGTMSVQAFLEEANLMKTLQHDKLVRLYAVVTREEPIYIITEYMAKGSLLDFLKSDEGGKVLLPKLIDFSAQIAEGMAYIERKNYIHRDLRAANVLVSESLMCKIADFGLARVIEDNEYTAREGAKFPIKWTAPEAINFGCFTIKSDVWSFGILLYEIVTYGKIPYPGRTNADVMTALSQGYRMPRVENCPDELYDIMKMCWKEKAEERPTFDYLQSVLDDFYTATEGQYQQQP
For the next data set, the system named is Rattus norvegicus. In words: Unbound drug level in plasma of CFA induced Sprague-Dawley rat at 20 mg/kg, po after 1 hr. The format is ADME, organism-based. Particulars: in vivo.
Data set [6] addresses Tyrosine-protein kinase SYK (Homo sapiens) (UniProt P43405). Kind of data set: Inhibition of recombinant human full length N-terminal GST and C-terminal His6-tagged SYK (M1 to N635) expressed in Sf9 insect cells at 20 nM using phosphatidylserine as substrate incubated for 60 mins in presence of [33P]-ATP by scintillation counting method.
Data set [7] concerns the target Serine/threonine-protein kinase 3 (Homo sapiens) (UniProt Q13188). Kind of data set: Inhibition of recombinant human full length MST2 (M1 to F491) expressed in Sf9 insect cells at 20 nM using phosphatidylserine as substrate incubated for 60 mins in presence of [33P]-ATP by scintillation counting method.
Data set [8] concerns the target Calcium/calmodulin-dependent protein kinase type II subunit delta (Homo sapiens) (UniProt Q13557). In words: Inhibition of CAMK2D (unknown origin) at 20 nM using calmodulin as substrate incubated for 60 mins in presence of [33P]-ATP by scintillation counting method.

Chain of Serine/threonine-protein kinase 3 (Homo sapiens) (Q13188 whole entry): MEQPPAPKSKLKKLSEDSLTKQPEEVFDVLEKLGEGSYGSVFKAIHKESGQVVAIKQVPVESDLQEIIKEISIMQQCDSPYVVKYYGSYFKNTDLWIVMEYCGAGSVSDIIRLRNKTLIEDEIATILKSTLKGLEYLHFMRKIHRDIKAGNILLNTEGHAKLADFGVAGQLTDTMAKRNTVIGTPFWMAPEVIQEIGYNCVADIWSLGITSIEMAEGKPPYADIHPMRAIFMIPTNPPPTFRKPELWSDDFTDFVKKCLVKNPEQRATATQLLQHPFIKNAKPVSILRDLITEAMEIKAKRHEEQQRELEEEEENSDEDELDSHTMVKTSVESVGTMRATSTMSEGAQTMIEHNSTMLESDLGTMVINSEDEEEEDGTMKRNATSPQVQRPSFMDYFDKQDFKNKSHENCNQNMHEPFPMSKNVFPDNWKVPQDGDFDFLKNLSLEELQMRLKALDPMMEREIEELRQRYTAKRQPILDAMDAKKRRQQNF
Chain of Ribosomal protein S6 kinase alpha-5 (Homo sapiens) (O75582 whole entry, looked up): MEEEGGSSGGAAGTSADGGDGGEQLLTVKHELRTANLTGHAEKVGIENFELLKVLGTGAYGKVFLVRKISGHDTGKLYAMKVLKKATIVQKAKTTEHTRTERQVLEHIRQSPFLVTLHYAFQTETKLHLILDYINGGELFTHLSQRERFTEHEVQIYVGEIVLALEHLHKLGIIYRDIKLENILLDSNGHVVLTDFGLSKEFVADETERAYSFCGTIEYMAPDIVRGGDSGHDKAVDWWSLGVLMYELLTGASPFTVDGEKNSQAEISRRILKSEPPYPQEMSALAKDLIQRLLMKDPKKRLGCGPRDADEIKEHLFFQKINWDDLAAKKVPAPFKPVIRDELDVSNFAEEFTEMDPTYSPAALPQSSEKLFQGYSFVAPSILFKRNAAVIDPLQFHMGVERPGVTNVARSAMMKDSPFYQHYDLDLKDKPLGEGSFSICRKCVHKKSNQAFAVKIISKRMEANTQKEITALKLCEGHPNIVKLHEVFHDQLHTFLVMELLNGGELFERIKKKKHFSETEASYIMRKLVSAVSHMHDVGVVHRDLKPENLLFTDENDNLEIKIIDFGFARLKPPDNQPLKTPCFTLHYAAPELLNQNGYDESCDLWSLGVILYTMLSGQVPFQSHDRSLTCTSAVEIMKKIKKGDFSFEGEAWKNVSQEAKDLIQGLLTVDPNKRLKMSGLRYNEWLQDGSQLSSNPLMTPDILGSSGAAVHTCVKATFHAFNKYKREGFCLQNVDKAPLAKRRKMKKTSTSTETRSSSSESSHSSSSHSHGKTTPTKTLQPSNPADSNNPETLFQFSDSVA
Chain of Serine/threonine-protein kinase pim-2 (Homo sapiens) (Q9P1W9 whole entry, looked up): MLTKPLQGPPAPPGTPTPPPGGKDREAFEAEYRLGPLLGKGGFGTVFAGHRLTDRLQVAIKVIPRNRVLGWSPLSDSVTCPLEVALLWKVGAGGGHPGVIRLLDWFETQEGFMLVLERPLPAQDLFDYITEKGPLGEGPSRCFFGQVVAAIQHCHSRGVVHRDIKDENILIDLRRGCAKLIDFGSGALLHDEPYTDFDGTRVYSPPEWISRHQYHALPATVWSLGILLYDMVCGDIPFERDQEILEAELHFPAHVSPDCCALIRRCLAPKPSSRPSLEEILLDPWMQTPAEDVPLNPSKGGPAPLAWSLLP
Chain of Calcium/calmodulin-dependent protein kinase type II subunit delta (Homo sapiens) (Q13557 whole entry): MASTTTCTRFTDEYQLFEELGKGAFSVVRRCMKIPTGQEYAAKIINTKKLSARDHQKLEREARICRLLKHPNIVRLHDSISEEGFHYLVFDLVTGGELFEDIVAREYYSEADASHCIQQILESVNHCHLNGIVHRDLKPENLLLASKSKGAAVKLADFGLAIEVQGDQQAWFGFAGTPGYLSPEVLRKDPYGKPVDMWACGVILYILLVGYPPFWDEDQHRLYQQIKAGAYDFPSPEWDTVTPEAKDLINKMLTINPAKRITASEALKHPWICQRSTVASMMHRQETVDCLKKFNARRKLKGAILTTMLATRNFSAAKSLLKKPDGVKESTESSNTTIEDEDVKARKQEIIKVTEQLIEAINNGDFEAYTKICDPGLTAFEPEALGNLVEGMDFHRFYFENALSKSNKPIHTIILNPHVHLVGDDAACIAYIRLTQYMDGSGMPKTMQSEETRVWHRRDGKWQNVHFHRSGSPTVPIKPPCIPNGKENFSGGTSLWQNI

For the compound `Cn1cc(-c2n[nH]c3ccc(NCc4cc(F)ccc4S(C)(=O)=O)cc23)cn1`, the inhibition in data set [1] was -1%; in the data set filed under Homo sapiens, -8%; in [3] it was 6%; in data set [4], 5%; in [5] it was -1%; in data set [6], 4%. The figures for the inhibition in data set [7] and in data set [8] were 3% and 0%, respectively. Moreover, the “Drug uptake(free)” value in data set [2] was “Bld”. The “Cp(f)” value with Rattus norvegicus is listed as 70.9 nM.
